# Test results reported in EPA's ToxValDB 9.5 (doi:10.2903/j.efsa.2010.1873).
# Key:
# Aphidius rhopalosiphi = experiment: LR50; higher = less toxic; settings: not reported; mortality
# Bibionidae = settings: chronic/long-term; duration: 28 days; development
# Apis mellifera = settings: acute; duration: 48 hours; oral; unspecified; mortality
# Anas platyrhynchos = settings: oral, mortality
# Tagia sp. = settings: acute, duration: 14 days
# Anabaena flosaquae = settings: acute; duration: 72 hours; biomass
# Landoltia sp. = settings: acute; duration: 7 days; biomass
# Daphnia magna = settings: chronic/long-term; duration: 21 days; reproduction
# Lepomis macrochirus = settings: acute; duration: 96 hours; mortality
# Oncorhynchus mykiss = settings: chronic/long-term; duration: 21 days; mortality
# Canidae = settings: subchronic; duration: 90 days; oral; Dog Other; clinical chemistry
Compound,LR50 (Aphidius rhopalosiphi) [g/ha],NOEC (Bibionidae) [mg/L],LD50 (Apis mellifera) [µg/piece],"LC50 (Anas platyrhynchos; short-term, feed) [mg/kg-day]",NOEC (Tagia sp.; body weight) [mg/kg],LC50 (Tagia sp.; mortality) [mg/kg],NOEC (Anabaena flosaquae) [mg/L],NOEC (Landoltia sp.) [mg/L],NOEC (Daphnia magna) [mg/L],"LD50 (Rattus norvegicus; acute, oral, mortality) [mg/kg-day]","NOAEL (Rattus norvegicus; developmental, development) [mg/kg-day]","NOEL (Rattus norvegicus; reproduction developmental, reproduction) [mg/kg-day]","LC50 (Colinus virginianus; acute, oral, diet, mortality) [mg/kg-day]","LD50 (Colinus virginianus; acute, oral, mortality) [mg/kg-day]",NOEC (Colinus virginianus; reproduction developmental) [mg/kg-day],LC50 (Lepomis macrochirus) [mg/L],NOEC (Oncorhynchus mykiss) [mg/L],NOAEL (Canidae) [mg/kg-day],"LD50 (Anas platyrhynchos; acute, unspecified) [mg/kg-day]"
N#CN [Cyanamide],432,6.6,> 10,> 435,55.7,> 112,0.05,0.5,0.1,223,5,3.75,> 1040,350,13.3,43.1,3.7,0.6,
N#CN=C(N)N [Cyanoguanidine],,,,,,,,,,,,,,,,,,,> 2000
